Patent publication US6358885B1, “Substituted phenylheterocyclic herbicides” (Mississippi State University, priority 1992, dated 2002)

How the values were obtained:
[1] = system: velvetleaf; assay: Test C preemergence/postemergence greenhouse plant response rating 0 to 100; type: in vivo, Abutilon theophrasti; conditions: POSTEMERGENCE; for Plant response rating, Velvetleaf: 0 to 100 scale
Method in brief: (§1)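 Compounds in non-phytotoxic solvent applied preemergence to sandy loam one day after planting, postemergence at the 1–4 leaf stage, or to ~2.5 cm floodwater over silt loam.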

[2] = system: rice; assay: Test C flood test plant response rating 0 to 100; type: in vivo, Oryza sativa; conditions: for Plant response rating Rice Japonica: flood test species listed under POSTEMERGENCE, 0 to 100 scale
Method in brief: as §1

[3] = system: giant foxtail; assay: Test B preemergence/postemergence greenhouse plant response rating 0 to 10; type: in vivo, Setaria faberii; conditions: 0 to 10 scale
Method in brief: (§2)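 Test chemicals, dissolved in a non-phytotoxic solvent, were applied to soil at planting and, at the same time, over foliage of seedlings at the one to four leaf stage.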

[4] = system: barnyardgrass; assay: as above; type: in vivo, Echinochloa crus-galli; conditions: 0 to 10 scale
Method in brief: as §2

[5] = system: wild oat; assay: Test C preemergence/postemergence greenhouse plant response rating 0 to 100; type: in vivo, Avena fatua; conditions: POSTEMERGENCE; for Plant response rating, Wild oat: 0 to 100 scale
Method in brief: as §1

[6] = system: velvetleaf; assay: Test B preemergence/postemergence greenhouse plant response rating 0 to 10; type: in vivo, Abutilon theophrasti; conditions: 0 to 10 scale
Method in brief: as §2

[7] = system: sorghum; assay: Test C preemergence/postemergence greenhouse plant response rating 0 to 100; type: in vivo, Sorghum bicolor; conditions: POSTEMERGENCE; for Plant response rating, Sorghum: 0 to 100 scale
Method in brief: as §1

[8] = system: sugar beet; assay: Test B preemergence/postemergence greenhouse plant response rating 0 to 10; type: in vivo, Beta vulgaris; conditions: 0 to 10 scale
Method in brief: as §2

[9] = system: crabgrass; assay: Test C preemergence/postemergence greenhouse plant response rating 0 to 100; type: in vivo, Digitaria sanguinalis; conditions: POSTEMERGENCE; for Plant response rating, Crabgrass: 0 to 100 scale
Method in brief: as §1

[10] = system: cotton; assay: as above; type: in vivo, Gossypium hirsutum; conditions: POSTEMERGENCE; for Plant response rating, Cotton: 0 to 100 scale
Method in brief: as §1

[11] = system: pigweed; assay: as above; type: in vivo, Amaranthusretroflexus; conditions: POSTEMERGENCE; for Plant response rating Pigweed: 0 to 100 scale
Method in brief: as §1

[12] = system: lambsquarters; assay: Test B preemergence/postemergence greenhouse plant response rating 0 to 10; type: in vivo, Chenopodium album; conditions: 0 to 10 scale
Method in brief: as §2

[13] = POSTEMERGENCE section, flood test, Rate 4 g/ha
[14] = Rate 16 g/ha, under POSTEMERGENCE head (flood test species)

SMILES: COCN1C(=O)COc2cc(F)c(-c3nn4c(c3Cl)CCCC4)cc21 [Compound 55]
- Plant response rating, Velvetleaf ([1]; 62 g/ha): 100
- Plant response rating (0 to 100), Velvetleaf ([1]; Rate 1 g/ha): 80
- Plant response rating (0 to 100), Velvetleaf ([1]; Rate 4 g/ha): 100
- Plant response rating (0 to 100), Velvetleaf ([1]; Rate 16 g/ha): 100
- Plant response rating (0 to 100), Rice Japonica ([2]; POSTEMERGENCE section, flood test, Rate 1 g/ha): 10
- Plant response rating (0 to 100), Rice Japonica [2, 13]: 30
- Plant response rating (0 to 100), Rice Japonica [2, 14]: 70
- Plant response rating Rice Japonica ([2]; 62 g/ha): 90
- Plant response rating, Giant foxtail ([3]; POSTEMERGENCE, Rate 10 g/ha): 4
- Plant response rating, Giant foxtail ([3]; POSTEMERGENCE, Rate 50 g/ha): 6
- Plant response rating, Giant foxtail ([3]; PREEMERGENCE, Rate 10 g/ha): 2
- Plant response rating, Giant foxtail ([3]; PREEMERGENCE, Rate 50 g/ha): 8
- Plant response rating, Barnyardgrass ([4]; POSTEMERGENCE, Rate 10 g/ha): 2
- Plant response rating, Barnyardgrass ([4]; POSTEMERGENCE, Rate 50 g/ha): 6
- Plant response rating, Barnyardgrass ([4]; PREEMERGENCE, Rate 10 g/ha): 0
- Plant response rating, Barnyardgrass ([4]; PREEMERGENCE, Rate 50 g/ha): 6
- Plant response rating, Wild oat ([5]; 62 g/ha): 60
- Plant response rating (0 to 100), Wild oat ([5]; Rate 1 g/ha): 20
- Plant response rating (0 to 100), Wild oat ([5]; Rate 4 g/ha): 30
- Plant response rating (0 to 100), Wild oat ([5]; Rate 16 g/ha): 40
- Plant response rating, Velvetleaf ([6]; POSTEMERGENCE, Rate 10 g/ha): 10
- Plant response rating, Velvetleaf ([6]; POSTEMERGENCE, Rate 50 g/ha): 9
- Plant response rating, Velvetleaf ([6]; PREEMERGENCE, Rate 50 g/ha): 10
- Plant response rating, Sorghum ([7]; 62 g/ha): 60
- Plant response rating (0 to 100), Sorghum ([7]; Rate 1 g/ha): 30
- Plant response rating (0 to 100), Sorghum ([7]; Rate 4 g/ha): 40
- Plant response rating (0 to 100), Sorghum ([7]; Rate 16 g/ha): 50
- Plant response rating, Sugar beet ([8]; POSTEMERGENCE, Rate 10 g/ha): 10
- Plant response rating, Sugar beet ([8]; POSTEMERGENCE, Rate 50 g/ha): 10
- Plant response rating, Sugar beet ([8]; PREEMERGENCE, Rate 50 g/ha): 10
- Plant response rating, Crabgrass ([9]; 62 g/ha): 40
- Plant response rating (0 to 100), Crabgrass ([9]; Rate 1 g/ha): 10
- Plant response rating (0 to 100), Crabgrass ([9]; Rate 4 g/ha): 10
- Plant response rating (0 to 100), Crabgrass ([9]; Rate 16 g/ha): 30
- Plant response rating, Cotton ([10]; 62 g/ha): 100
- Plant response rating (0 to 100), Cotton ([10]; Rate 1 g/ha): 90
- Plant response rating (0 to 100), Cotton ([10]; Rate 4 g/ha): 100
- Plant response rating (0 to 100), Cotton ([10]; Rate 16 g/ha): 100
- Plant response rating Pigweed ([11]; 62 g/ha): 100
- Plant response rating (0 to 100), Pigweed ([11]; Rate 1 g/ha): 100
- Plant response rating (0 to 100), Pigweed ([11]; Rate 4 g/ha): 100
- Plant response rating (0 to 100), Pigweed ([11]; Rate 16 g/ha): 100
- Plant response rating, Lambsquarter ([12]; POSTEMERGENCE, Rate 10 g/ha): 10
- Plant response rating, Lambsquarter ([12]; POSTEMERGENCE, Rate 50 g/ha): 10
- Plant response rating, Lambsquarter ([12]; PREEMERGENCE, Rate 50 g/ha): 10

SMILES: Fc1cc(Cl)c(OCCCl)cc1-c1nn2c(c1Cl)CCCC2 [Compound 49]
- Plant response rating, Velvetleaf ([1]; 62 g/ha): 100
- Plant response rating, Velvetleaf ([1]; 250 g/ha): 100
- Plant response rating (0 to 100), Velvetleaf ([1]; Rate 4 g/ha): 50
- Plant response rating (0 to 100), Velvetleaf ([1]; Rate 16 g/ha): 90
- Plant response rating (0 to 100), Rice Japonica [2, 13]: 10
- Plant response rating (0 to 100), Rice Japonica [2, 14]: 30
- Plant response rating Rice Japonica ([2]; 62 g/ha): 50
- Plant response rating Rice Japonica ([2]; 250 g/ha): 60
- Plant response rating, Giant foxtail ([3]; POSTEMERGENCE, Rate 50 g/ha): 4
- Plant response rating, Giant foxtail ([3]; PREEMERGENCE, Rate 50 g/ha): 4
- Plant response rating, Giant foxtail ([3]; Rate 200 g/ha, POSTEMERGENCE): 6
- Plant response rating, Giant foxtail ([3]; Rate 200 g/ha, PREEMERGENCE): 10
- Plant response rating, Barnyardgrass ([4]; POSTEMERGENCE, Rate 50 g/ha): 3
- Plant response rating, Barnyardgrass ([4]; POSTEMERGENCE, Rate 200 g/ha): 7
- Plant response rating, Barnyardgrass ([4]; PREEMERGENCE, Rate 50 g/ha): 0
- Plant response rating, Barnyardgrass ([4]; Rate 200 g/ha, PREEMERGENCE): 5
- Plant response rating, Wild oat ([5]; 62 g/ha): 50
- Plant response rating, Wild oat ([5]; 250 g/ha): 60
- Plant response rating (0 to 100), Wild oat ([5]; Rate 4 g/ha): 20
- Plant response rating (0 to 100), Wild oat ([5]; Rate 16 g/ha): 40
- Plant response rating, Velvetleaf ([6]; POSTEMERGENCE, Rate 50 g/ha): 9
- Plant response rating, Velvetleaf ([6]; PREEMERGENCE, Rate 50 g/ha): 0
- Plant response rating, Velvetleaf ([6]; Rate 200 g/ha, POSTEMERGENCE): 10
- Plant response rating, Velvetleaf ([6]; Rate 200 g/ha, PREEMERGENCE): 1
- Plant response rating, Sorghum ([7]; 62 g/ha): 50
- Plant response rating, Sorghum ([7]; 250 g/ha): 60
- Plant response rating (0 to 100), Sorghum ([7]; Rate 4 g/ha): 30
- Plant response rating (0 to 100), Sorghum ([7]; Rate 16 g/ha): 40
- Plant response rating, Sugar beet ([8]; POSTEMERGENCE, Rate 50 g/ha): 10
- Plant response rating, Sugar beet ([8]; PREEMERGENCE, Rate 50 g/ha): 9
- Plant response rating, Sugar beet ([8]; Rate 200 g/ha, POSTEMERGENCE): 10
- Plant response rating, Sugar beet ([8]; Rate 200 g/ha, PREEMERGENCE): 10
- Plant response rating, Crabgrass ([9]; 62 g/ha): 20
- Plant response rating, Crabgrass ([9]; 250 g/ha): 40
- Plant response rating (0 to 100), Crabgrass ([9]; Rate 4 g/ha): 10
- Plant response rating (0 to 100), Crabgrass ([9]; Rate 16 g/ha): 10
- Plant response rating, Cotton ([10]; 62 g/ha): 100
- Plant response rating, Cotton ([10]; 250 g/ha): 100
- Plant response rating (0 to 100), Cotton ([10]; Rate 4 g/ha): 90
- Plant response rating (0 to 100), Cotton ([10]; Rate 16 g/ha): 90
- Plant response rating Pigweed ([11]; 62 g/ha): 100
- Plant response rating Pigweed ([11]; 250 g/ha): 100
- Plant response rating (0 to 100), Pigweed ([11]; Rate 4 g/ha): 70
- Plant response rating (0 to 100), Pigweed ([11]; Rate 16 g/ha): 100
- Plant response rating, Lambsquarter ([12]; PREEMERGENCE, Rate 50 g/ha): 10
- Plant response rating, Lambsquarter ([12]; Rate 200 g/ha, POSTEMERGENCE): 10
- Plant response rating, Lambsquarter ([12]; Rate 200 g/ha, PREEMERGENCE): 10
